Data from ChEMBL document CHEMBL5291721, “A preclinical secondary pharmacology resource illuminates target-adverse drug reaction associations of marketed drugs” (Nat Commun, 2023).

What was measured:
[1] = target: Sodium-dependent dopamine transporter (Homo sapiens, UniProt Q01959)
Mu-type opioid receptor = Mu-type opioid receptor (Homo sapiens, UniProt P35372)
[2] = target: Gamma-aminobutyric acid receptor subunit alpha-1/alpha-2/beta-2/gamma-2 (Homo sapiens, UniProt P14867+P18507+P47869+P47870); format: protein-complex assay
Sequence of Gamma-aminobutyric acid receptor subunit alpha-1/alpha-2/beta-2/gamma-2 (P14867 whole entry): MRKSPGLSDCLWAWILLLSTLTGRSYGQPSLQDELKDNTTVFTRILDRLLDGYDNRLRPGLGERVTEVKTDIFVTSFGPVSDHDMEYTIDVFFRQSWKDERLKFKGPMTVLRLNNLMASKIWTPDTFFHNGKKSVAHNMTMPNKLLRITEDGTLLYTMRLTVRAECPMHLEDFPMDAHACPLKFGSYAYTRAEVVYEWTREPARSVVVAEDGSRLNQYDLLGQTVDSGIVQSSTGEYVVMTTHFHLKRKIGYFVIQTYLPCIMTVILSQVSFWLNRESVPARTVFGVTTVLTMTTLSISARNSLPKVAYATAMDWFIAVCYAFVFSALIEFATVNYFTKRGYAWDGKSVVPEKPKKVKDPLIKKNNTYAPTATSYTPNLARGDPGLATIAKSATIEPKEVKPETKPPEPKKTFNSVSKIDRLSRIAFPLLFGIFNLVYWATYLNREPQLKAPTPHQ
Sequence of Gamma-aminobutyric acid receptor subunit alpha-1/alpha-2/beta-2/gamma-2 (P47870 whole entry): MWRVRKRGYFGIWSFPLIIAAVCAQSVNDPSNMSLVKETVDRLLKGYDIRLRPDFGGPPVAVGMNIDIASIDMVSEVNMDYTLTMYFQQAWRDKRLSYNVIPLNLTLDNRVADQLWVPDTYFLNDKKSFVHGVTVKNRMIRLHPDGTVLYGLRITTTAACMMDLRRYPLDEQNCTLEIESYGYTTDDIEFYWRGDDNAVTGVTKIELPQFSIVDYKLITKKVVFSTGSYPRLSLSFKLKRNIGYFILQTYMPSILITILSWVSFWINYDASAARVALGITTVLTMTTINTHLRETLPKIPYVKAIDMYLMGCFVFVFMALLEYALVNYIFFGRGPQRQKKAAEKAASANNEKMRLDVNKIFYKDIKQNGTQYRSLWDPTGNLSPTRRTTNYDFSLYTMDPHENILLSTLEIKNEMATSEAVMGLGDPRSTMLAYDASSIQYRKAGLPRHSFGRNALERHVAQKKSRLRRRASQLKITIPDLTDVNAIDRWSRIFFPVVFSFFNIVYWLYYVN
Sequence of Gamma-aminobutyric acid receptor subunit alpha-1/alpha-2/beta-2/gamma-2 (P18507 whole entry): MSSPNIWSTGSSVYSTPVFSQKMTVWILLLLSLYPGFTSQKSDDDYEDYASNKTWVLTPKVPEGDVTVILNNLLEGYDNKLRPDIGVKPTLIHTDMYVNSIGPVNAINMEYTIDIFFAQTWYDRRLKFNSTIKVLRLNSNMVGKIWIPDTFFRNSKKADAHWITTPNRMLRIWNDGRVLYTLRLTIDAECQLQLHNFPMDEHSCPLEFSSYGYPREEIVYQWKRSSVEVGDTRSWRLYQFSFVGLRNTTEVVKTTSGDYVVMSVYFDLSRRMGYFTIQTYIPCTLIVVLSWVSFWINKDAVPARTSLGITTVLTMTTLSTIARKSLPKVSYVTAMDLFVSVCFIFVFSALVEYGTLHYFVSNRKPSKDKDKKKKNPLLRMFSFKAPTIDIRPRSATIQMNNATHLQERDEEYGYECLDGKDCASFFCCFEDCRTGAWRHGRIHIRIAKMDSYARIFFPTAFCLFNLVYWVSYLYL
Sequence of Gamma-aminobutyric acid receptor subunit alpha-1/alpha-2/beta-2/gamma-2 (P47869 whole entry): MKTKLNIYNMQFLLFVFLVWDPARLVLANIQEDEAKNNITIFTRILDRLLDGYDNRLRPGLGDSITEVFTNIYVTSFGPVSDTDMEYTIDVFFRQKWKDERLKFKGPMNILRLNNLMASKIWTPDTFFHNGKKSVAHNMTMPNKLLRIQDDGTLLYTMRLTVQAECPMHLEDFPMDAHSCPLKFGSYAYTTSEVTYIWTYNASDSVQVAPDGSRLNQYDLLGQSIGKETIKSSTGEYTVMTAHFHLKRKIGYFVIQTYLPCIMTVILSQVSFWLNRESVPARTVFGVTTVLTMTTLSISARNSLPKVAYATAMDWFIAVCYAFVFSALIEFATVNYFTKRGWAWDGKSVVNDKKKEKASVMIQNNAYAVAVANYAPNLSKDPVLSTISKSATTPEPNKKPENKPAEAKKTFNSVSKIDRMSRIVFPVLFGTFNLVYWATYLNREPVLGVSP

[3] = target: T1, Prostaglandin G/H synthase 1 (Rattus norvegicus, UniProt Q63921); format: functional
T1 sequence (Q63921 whole entry): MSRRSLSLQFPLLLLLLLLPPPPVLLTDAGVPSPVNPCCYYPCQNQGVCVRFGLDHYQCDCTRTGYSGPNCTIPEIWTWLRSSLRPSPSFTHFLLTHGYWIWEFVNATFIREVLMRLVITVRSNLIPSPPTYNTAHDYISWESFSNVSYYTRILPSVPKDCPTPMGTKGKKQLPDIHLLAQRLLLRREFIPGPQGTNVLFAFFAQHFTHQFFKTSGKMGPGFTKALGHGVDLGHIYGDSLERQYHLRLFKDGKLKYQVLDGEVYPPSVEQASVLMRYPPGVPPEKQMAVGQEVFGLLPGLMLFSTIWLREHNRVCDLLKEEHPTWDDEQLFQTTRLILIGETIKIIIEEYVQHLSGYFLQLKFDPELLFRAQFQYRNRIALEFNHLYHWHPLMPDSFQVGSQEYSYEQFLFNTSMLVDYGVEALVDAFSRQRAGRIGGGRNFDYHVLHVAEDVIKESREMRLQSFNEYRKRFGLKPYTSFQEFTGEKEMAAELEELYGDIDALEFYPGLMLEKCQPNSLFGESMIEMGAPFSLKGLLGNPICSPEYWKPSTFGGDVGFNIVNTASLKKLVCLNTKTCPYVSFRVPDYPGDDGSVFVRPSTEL

[4] = target: 5-hydroxytryptamine receptor 2B (Homo sapiens, UniProt P41595); format: functional, cell-based
Sequence of 5-hydroxytryptamine receptor 2B (P41595 whole entry): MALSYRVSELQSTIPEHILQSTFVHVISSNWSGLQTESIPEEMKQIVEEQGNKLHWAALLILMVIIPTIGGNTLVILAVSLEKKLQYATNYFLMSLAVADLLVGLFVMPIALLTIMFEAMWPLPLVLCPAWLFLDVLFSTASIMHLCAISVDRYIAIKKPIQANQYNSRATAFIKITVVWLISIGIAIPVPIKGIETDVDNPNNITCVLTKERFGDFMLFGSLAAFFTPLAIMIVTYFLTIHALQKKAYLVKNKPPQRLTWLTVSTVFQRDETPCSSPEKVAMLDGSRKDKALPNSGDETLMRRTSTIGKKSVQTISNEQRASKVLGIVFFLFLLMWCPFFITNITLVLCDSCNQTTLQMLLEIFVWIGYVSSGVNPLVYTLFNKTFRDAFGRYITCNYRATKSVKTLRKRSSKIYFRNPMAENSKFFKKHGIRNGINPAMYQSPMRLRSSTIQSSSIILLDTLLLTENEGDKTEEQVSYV

[5] = target: Delta-type opioid receptor (Homo sapiens, UniProt P41143)
Sequence of Delta-type opioid receptor (P41143 whole entry): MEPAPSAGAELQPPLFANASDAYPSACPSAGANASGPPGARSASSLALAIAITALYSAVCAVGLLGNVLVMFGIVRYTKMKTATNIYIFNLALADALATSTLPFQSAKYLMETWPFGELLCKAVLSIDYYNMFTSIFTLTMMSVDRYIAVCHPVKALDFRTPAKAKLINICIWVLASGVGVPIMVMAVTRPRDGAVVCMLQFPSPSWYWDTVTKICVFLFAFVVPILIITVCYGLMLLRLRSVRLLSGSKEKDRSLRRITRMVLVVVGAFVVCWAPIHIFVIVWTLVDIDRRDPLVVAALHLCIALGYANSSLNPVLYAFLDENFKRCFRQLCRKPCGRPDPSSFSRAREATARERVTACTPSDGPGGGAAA

Thromboxane A2 receptor = target: T2, Thromboxane A2 receptor (Homo sapiens, UniProt P21731); format: functional, cell-based
T2 sequence (P21731 whole entry): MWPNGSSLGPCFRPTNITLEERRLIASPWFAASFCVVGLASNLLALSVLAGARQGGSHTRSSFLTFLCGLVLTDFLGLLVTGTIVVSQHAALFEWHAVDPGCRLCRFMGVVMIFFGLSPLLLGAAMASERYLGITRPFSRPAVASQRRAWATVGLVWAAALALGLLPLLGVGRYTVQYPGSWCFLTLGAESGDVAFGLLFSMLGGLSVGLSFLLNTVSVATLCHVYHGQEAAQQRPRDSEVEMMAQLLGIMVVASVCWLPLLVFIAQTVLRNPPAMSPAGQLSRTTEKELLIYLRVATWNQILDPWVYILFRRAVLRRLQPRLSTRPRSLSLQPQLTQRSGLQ

[6] = target: T3, 5-hydroxytryptamine receptor 1A (Homo sapiens, UniProt P08908); format: functional, cell-based
T3 sequence (P08908 whole entry): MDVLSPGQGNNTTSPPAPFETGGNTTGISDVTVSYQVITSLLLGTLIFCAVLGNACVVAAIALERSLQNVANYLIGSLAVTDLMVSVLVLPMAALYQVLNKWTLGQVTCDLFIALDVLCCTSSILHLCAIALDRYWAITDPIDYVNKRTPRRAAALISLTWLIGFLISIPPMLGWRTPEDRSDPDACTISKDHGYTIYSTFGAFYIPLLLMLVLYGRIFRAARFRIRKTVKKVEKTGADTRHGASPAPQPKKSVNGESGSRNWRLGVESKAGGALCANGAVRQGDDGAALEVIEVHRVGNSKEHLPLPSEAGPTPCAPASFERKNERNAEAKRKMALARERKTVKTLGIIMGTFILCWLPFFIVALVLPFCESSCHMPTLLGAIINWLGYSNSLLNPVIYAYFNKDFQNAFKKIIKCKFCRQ

Adenosine receptor A3 = target: T4, Adenosine receptor A3 (Homo sapiens, UniProt P0DMS8)
T4 sequence (P0DMS8 whole entry): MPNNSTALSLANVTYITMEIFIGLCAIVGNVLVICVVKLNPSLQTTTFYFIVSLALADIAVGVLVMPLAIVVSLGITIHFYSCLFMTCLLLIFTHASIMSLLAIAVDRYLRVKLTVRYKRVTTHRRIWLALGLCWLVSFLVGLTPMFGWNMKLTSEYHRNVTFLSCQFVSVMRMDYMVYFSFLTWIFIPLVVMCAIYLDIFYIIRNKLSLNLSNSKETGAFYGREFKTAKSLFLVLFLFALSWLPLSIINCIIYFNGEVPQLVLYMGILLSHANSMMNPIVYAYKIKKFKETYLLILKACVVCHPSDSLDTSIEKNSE

[7] = target: T5, Muscarinic acetylcholine receptor M2 (Homo sapiens, UniProt P08172)
T5 sequence (P08172 whole entry): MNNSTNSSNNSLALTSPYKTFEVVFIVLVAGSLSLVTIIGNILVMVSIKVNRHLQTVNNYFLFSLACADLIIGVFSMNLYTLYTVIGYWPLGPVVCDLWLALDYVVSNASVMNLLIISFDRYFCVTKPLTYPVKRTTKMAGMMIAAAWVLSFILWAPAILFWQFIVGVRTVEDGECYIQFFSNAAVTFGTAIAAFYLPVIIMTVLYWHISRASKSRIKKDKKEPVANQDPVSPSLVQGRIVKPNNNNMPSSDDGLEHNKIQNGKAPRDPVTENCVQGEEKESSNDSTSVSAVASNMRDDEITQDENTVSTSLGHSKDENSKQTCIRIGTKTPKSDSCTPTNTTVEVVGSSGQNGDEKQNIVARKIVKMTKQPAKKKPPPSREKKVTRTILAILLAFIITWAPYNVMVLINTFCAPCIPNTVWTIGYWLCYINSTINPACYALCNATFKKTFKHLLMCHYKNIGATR

[8] = target: T6, Type-1 angiotensin II receptor (Homo sapiens, UniProt P30556)
T6 sequence (P30556 whole entry): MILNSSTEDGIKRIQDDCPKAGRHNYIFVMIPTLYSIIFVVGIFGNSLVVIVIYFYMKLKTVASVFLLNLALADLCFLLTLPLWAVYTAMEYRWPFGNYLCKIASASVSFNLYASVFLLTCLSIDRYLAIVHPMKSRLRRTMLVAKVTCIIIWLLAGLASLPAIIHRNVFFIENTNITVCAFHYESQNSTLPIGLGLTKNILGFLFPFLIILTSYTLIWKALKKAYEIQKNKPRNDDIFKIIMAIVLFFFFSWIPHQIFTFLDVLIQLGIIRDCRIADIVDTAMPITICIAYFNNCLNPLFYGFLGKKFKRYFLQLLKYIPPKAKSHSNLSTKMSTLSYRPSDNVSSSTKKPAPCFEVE

[9] = target: Growth hormone secretagogue receptor type 1 (Homo sapiens, UniProt Q92847)
Sequence of Growth hormone secretagogue receptor type 1 (Q92847 whole entry): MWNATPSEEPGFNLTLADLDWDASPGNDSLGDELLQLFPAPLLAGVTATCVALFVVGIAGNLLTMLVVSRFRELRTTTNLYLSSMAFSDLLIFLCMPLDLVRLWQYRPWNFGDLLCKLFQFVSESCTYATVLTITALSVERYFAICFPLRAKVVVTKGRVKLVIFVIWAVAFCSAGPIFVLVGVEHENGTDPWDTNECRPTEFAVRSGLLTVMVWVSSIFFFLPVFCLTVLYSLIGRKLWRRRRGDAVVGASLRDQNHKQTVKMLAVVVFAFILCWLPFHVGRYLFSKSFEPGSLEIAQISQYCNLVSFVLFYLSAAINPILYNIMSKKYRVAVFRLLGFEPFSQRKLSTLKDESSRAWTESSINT
Also: assay procedure not described here.

Sequence of Sodium-dependent dopamine transporter (Q01959 whole entry): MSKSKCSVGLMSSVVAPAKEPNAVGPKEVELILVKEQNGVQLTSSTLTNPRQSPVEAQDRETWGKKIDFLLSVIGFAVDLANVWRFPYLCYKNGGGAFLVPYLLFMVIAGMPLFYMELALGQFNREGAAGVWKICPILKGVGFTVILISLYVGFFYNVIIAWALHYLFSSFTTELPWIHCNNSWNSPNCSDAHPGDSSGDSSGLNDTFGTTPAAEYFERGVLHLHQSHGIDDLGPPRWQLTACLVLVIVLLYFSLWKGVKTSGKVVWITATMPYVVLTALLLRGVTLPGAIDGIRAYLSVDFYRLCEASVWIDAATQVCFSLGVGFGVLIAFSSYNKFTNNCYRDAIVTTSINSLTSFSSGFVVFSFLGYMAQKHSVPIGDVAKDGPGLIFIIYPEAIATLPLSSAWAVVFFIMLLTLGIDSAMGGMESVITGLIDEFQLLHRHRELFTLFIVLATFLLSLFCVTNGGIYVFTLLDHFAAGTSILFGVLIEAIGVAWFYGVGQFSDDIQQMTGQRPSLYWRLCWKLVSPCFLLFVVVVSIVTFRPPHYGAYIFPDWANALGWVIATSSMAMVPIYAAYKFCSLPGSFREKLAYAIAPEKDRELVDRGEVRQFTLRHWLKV
Sequence of Mu-type opioid receptor (P35372 whole entry): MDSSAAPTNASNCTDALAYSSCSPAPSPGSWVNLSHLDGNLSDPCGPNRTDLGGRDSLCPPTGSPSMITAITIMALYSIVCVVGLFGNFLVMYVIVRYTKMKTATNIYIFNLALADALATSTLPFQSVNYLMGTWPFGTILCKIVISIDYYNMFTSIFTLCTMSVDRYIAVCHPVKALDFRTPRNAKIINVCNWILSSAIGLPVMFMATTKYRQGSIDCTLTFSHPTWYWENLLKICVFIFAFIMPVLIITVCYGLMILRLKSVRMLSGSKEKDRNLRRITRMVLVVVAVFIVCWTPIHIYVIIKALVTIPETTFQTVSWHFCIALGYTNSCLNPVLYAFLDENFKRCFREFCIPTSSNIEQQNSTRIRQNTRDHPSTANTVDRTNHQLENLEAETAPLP

| Structure (SMILES) | AC50 [1] [µM] | AC50 (Mu-type opioid receptor) [µM] | AC50 [2] [µM] | AC50 [3] [µM] | AC50 [4] [µM] | AC50 [5] [µM] | AC50 (Thromboxane A2 receptor) [µM] | AC50 [6] [µM] | AC50 (Adenosine receptor A3) [µM] | AC50 [7] [µM] | AC50 [8] [µM] | AC50 [9] [µM] |
| --- | --- | --- | --- | --- | --- | --- | --- | --- | --- | --- | --- | --- |
| Nc1nc(N)c2nc(-c3ccccc3)c(N)nc2n1 | > 30 | 17 | > 30 | > 30 | > 30 | > 30 | > 30 | > 30 | > 30 | > 30 | > 30 | > 30 |
| Oc1ncnc2[nH]ncc12 [ALLOPURINOL] | > 30 | > 30 | > 30 | > 30 | > 10 | > 30 | > 30 | > 10 | > 30 | > 30 | > 30 | > 30 |
| CN(C)CCCN1c2ccccc2CCc2ccc(Cl)cc21 [CLOMIPRAMINE] | 4.82 | > 10 | > 30 | – | > 10 | > 30 | – | > 30 | – | 0.451 | – | – |
| CN(CCOc1ccc(NS(C)(=O)=O)cc1)CCc1ccc(NS(C)(=O)=O)cc1 [DOFETILIDE] | > 30 | > 30 | > 30 | > 30 | > 30 | > 30 | > 30 | > 30 | > 30 | 6.73 | 9.5 | > 30 |
| COc1cc2c(cc1OC)C(=O)C(CC1CCN(Cc3ccccc3)CC1)C2 (configuration not stated) [DONEPEZIL] | 9.78 | > 30 | > 30 | > 30 | – | > 30 | > 30 | – | > 30 | – | 15.6 | > 30 |
| CC(C)C(=O)Nc1ccc([N+](=O)[O-])c(C(F)(F)F)c1 [FLUTAMIDE] | > 30 | > 30 | > 10 | > 10 | > 10 | > 30 | > 30 | > 10 | > 30 | > 30 | > 10 | > 30 |
| CC(C(=O)O)c1ccc(N2CC=CC2)c(Cl)c1 (configuration not stated) [PIRPROFEN] | > 30 | > 30 | > 30 | > 30 | > 10 | > 30 | > 30 | > 10 | > 30 | > 30 | > 30 | > 30 |
| NC(=O)c1cnccn1 [PYRAZINAMIDE] | > 30 | > 30 | > 30 | > 30 | > 30 | > 30 | > 30 | > 30 | 3.86 | > 30 | > 30 | > 30 |
| CCOC(=O)N[C@@H]1CC[C@@H]2[C@@H](C1)C[C@H]1C(=O)O[C@H](C)[C@H]1[C@H]2/C=C/c1ccc(-c2cccc(F)c2)cn1 [VORAPAXAR] | > 30 | – | > 30 | – | – | – | > 30 | – | – | > 30 | – | – |
